Experimental data reported in patent publication US6190664A, “Depigmenting cosmetic skin-care composition and use thereof” (C 3 D, priority 1995, dated 2001).

System: Tyrosinase
Assay: In vitro inhibition of tyrosinase (Dopachrome at 475 nm, substrate L-Dopa)
Type: biochemical
Conditions: for % of activity: controls = 100%
Procedure: The following test then allows to measure the inhibition of tyrosinase while dosing Dopachrome which is a coloured compound which may spectroscopically be dosed 475 nm.
In order to study the influence of some compounds on the enzymatic activity of tyrosinase, the enzymatic kinetics are achieved.
The reaction is performed at 25° C. in phosphate buffer pH7. Tyrosinase is brought together with its substrate L-Dopa. In the reaction medium it may be added the molecule to be studied.
One compares further the variation in optical density per minute of the test (in the presence of the molecule to be studied) to that of the controls (without molecule). The influence of the molecule on tyrosinase activity will be deduced. The results are then expressed as a percentage of activity knowing that the controls show 100% activity.
Appearance of Dopachrome at 475 nm is followed for 3 minutes.

| SMILES | % of inhibition (tested concentration 1 mg/ml) [%] | % of activity (tested concentration 1 mg/ml) [%] | % of inhibition (tested concentration 4 mg/ml) [%] | % of activity (tested concentration 4 mg/ml) [%] | % of inhibition (tested concentration 8 mg/ml) [%] | % of activity (tested concentration 8 mg/ml) [%] | % of inhibition (tested concentration 16 mg/ml) [%] | % of activity (tested concentration 16 mg/ml) [%] | % of inhibition (tested concentration 10 mg/ml) [%] | % of activity (tested concentration 10 mg/ml) [%] |
| --- | --- | --- | --- | --- | --- | --- | --- | --- | --- | --- |
| CCCCCCCCCCCCCCCC(=O)OC[C@H](O)[C@H]1OC(=O)C(O)=C1O [Ascorbyl Palmitate] | 66 | 34 | – | – | – | – | – | – | – | – |
| Oc1ccc(O)cc1 [Hydroquinone] | – | – | 0 | 241.9 | 0 | 229.41 | 0 | 112.53 | – | – |
| O=c1cc(CO)occ1O [Kojic acid] | 71 | 29 | – | – | – | – | – | – | 80 | 20 |
